Reference: patent US20150344457A1, “METHODS OF INHIBITING PRMT5” (EPIZYME, INC., priority 2012, published 2015)
Like-named read-outs stand apart in the source and are kept apart here.

Experiments:
[1] = system: Z-138 cells; assay: Z-138 Proliferation Assay (Cell Titer Glo, 5 days); format: cell-based; details: Homo sapiens, Table D-2
From the text: Z-138 Proliferation Assay
Z-138 suspension cells were purchased from ATCC (American Type Culture Collection, Manassas, Va.). RPMI/Glutamax medium, penicillin-streptomycin, heat inactivated fetal bovine serum were purchased from Life Technologies, Grand Island, N.Y., USA. V-bottom polypropylene 384-well plates were purchased from Greiner Bio-One, Monroe, N.C., USA. Cell culture 384-well white opaque plates were purchased from Perkin Elmer, Waltham, Mass., USA. Cell-Titer Gb® was purchased from Promega Corporation, Madison, Wis., USA. SpectraMax M5 plate reader was purchased from Molecular Devices LLC, Sunnyvale, Calif., USA.
Z-138 suspension cells were maintained in growth medium (RPMI 1640 supplemented with 10% v/v heat inactivated fetal bovine serum and cultured at 37° C. under 5% CO2. Under assay conditions, cells were incubated in assay medium (RPMI 1640 supplemented with 10% v/v heat inactivated fetal bovine serum and 100 units/mL penicillin-streptomycin) at 37° C. under 5% CO2.
For the assessment of the effect of compounds on the proliferation of the Z-138 cell line, exponentially growing cells were plated in 384-well white opaque plates at a density of 10,000 cells/ml in a final volume of 50 μl of assay medium. A compound source plate was prepared by performing triplicate nine-point 3-fold serial dilutions in DMSO, beginning at 10 mM (final top concentration of compound in the assay was 20 μM and the DMSO was 0.2%). A 100 nL aliquot from the compound stock plate was added to its respective well in the cell plate. […] After addition of compounds, assay plates were incubated for 5 days at 37° C., 5% CO2, relative humidity >90%.
Cell viability was measured by quantitation of ATP present in the cell cultures, adding 35 μl of Cell Titer Glo® reagent to the cell plates. Luminescence was read in the SpectraMax M5 microplate reader. The concentration of compound inhibiting cell viability by 50% was determined using a 4-parametric fit of the normalized dose response curves.

[2] = target: T1, PRMT5/MEP50 (Homo sapiens, UniProt O14744); assay: PRMT5 Biochemical Assay (PRMT5/MEP50 enzyme assay on peptide substrate, 3H-SAM Flashplate); details: read-out: Biochemical IC50
T1 construct: Expressed full-length human Flag-PRMT5/6His-MeP50 protein complex was purified; made in house; host or cells: Spodoptera frugiperda (SF9) insect cells, baculovirus (pDEST8)
T1 sequence (O14744 with tags, fused parts or gaps): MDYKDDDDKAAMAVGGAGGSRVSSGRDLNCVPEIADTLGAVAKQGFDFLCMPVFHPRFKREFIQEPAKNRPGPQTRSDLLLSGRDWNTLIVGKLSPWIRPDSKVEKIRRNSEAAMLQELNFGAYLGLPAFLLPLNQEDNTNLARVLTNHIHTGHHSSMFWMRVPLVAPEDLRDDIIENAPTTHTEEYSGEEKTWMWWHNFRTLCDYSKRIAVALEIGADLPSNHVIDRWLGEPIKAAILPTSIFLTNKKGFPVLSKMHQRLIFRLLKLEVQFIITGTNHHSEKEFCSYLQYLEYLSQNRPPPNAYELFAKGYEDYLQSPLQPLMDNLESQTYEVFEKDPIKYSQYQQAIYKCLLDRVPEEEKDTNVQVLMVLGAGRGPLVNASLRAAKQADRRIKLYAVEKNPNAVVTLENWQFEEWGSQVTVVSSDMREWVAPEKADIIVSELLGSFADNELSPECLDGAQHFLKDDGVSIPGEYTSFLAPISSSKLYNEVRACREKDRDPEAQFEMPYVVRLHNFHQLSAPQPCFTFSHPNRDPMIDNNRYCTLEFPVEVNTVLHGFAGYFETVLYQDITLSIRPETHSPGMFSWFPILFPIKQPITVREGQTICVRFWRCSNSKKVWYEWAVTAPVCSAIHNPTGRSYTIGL
T1 sequence (Q9BQA1 with tags, fused parts or gaps partner limits assumed): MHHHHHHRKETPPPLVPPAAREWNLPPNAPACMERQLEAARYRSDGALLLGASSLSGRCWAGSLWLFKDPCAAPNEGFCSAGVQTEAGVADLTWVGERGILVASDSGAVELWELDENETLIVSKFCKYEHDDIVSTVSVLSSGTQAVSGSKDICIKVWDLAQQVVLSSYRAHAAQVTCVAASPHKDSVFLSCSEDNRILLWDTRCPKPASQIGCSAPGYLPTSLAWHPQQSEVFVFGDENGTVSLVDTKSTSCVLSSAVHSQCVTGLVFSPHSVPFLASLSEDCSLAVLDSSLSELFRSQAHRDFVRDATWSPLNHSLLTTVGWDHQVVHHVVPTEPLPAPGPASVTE

Row | SMILES | IC50 ([2]; Table D-2) [µM] | IC50 ([2]; Table E-2) [µM] | EC50 [1] [µM]
1 | OC(COc1cccc(CNC2CCCC2)c1)CN1CCc2ccccc2C1 (centres unmarked) [Compound D1] | 0.101 to 1 | – | 10 to 40
2 | OC(COCc1ccc(OCc2ccccc2)cc1)CN1CCc2ccccc2C1 (centres unmarked) [Compound D12] | 1 to 10 | – | > 20
3 | O=S1(=O)CCN(c2ccc(OCC(O)CN3CCc4ccccc4C3)cc2)CC1 (centres unmarked) [Compound D18] | 1 to 10 | – | > 20
4 | OC(COC1CCN(Cc2ccccc2)CC1)CN1CCc2ccccc2C1 (centres unmarked) [Compound D21] | 1 to 10 | – | > 40
5 | O[C@H](COc1cccc(CNC2CCCC2)c1)CN1CCc2ccccc2C1 [Compound D22] | – | – | 10 to 40
6 | O[C@@H](COc1cccc(CNC2CCCC2)c1)CN1CCc2ccccc2C1 [Compound D23] | – | – | 10 to 40
7 | CN(Cc1ccc(OCC(O)CN2CCc3ccccc3C2)cc1)C1CCCC1 (centres unmarked) [Compound D24] | 1 to 10 | – | > 40
8 | OC(COc1ccc(C2CCNCC2)cc1)CN1CCc2ccccc2C1 (centres unmarked) [Compound D25] | 1 to 10 | – | 10 to 40
9 | Cc1nn(-c2ccccc2)c(C)c1COCC(O)CN1CCc2ccccc2C1 (centres unmarked) [Compound D28] | 1 to 10 | – | > 40
10 | COc1cccc2c1CN(CC(O)COc1cccc(CNC3CCCC3)c1)CC2 (centres unmarked) [Compound D29] | 10 to 40 | – | 10 to 40
11 | COc1cc2c(cc1OC)CN(CC(O)COc1cccc(CNC3CCCC3)c1)CC2 (centres unmarked) [Compound D30] | > 40 | – | 10 to 40
12 | CC(C(O)COc1cccc(CNC2CCCC2)c1)N1CCc2ccccc2C1 (centres unmarked) [Compound D33] | 1 to 10 | – | > 40
13 | O=C(c1ccc(Cn2ccc(-c3ccc(OCC(O)CN4CCc5ccccc5C4)cc3)n2)cc1)N1CCCC1 (centres unmarked) [Compound D34] | 1 to 10 | – | 10 to 40
14 | OC(COCc1ccc(Cl)cc1)CN1CCc2ccccc2C1 (centres unmarked) [Compound D278] | 1 to 10 | – | –
15 | COc1c(COCC(O)CN2CCc3ccccc3C2)ccc2ccccc12 (centres unmarked) [Compound D279] | 1 to 10 | – | –
16 | OC(COCc1c(Cl)cccc1Cl)CN1CCc2ccccc2C1 (centres unmarked) [Compound D280] | 1 to 10 | – | 10 to 40
17 | OC(COCc1ccc(Cl)cc1Cl)CN1CCc2ccccc2C1 (centres unmarked) [Compound D281] | 1 to 10 | – | –
18 | OC(COCc1ccccn1)CN1CCc2ccccc2C1 (centres unmarked) [Compound D282] | 10 to 40 | – | –
19 | OC(COCc1cccnc1)CN1CCc2ccccc2C1 (centres unmarked) [Compound D283] | 10 to 40 | – | –

Row | SMILES | IC50 ([2]; Table D-2) [µM] | IC50 ([2]; Table E-2) [µM] | EC50 [1] [µM]
20 | OC(COCc1ccncc1)CN1CCc2ccccc2C1 (centres unmarked) [Compound D284] | 10 to 40 | – | –
21 | OC(COc1ccc2c(c1)OCO2)CN1CCc2ccccc2C1 (centres unmarked) [Compound D285] | 1 to 10 | – | > 20
22 | CCCCNCc1cccc(COCC(O)CN2CCc3ccccc3C2)c1 (centres unmarked) [Compound D286] | 0.101 to 1 | – | > 20
23 | CC(C)(C)OC(=O)N1CCC(OCC(O)CN2CCc3ccccc3C2)C1 (centres unmarked) [Compound D287] | 1 to 10 | – | –
24 | COc1cccc(COCC(O)CN2CCc3ccccc3C2)c1 (centres unmarked) [Compound D288] | 1 to 10 | – | > 40
25 | OC(COC1CCCC1)CN1CCc2ccccc2C1 (centres unmarked) [Compound D302] | 1 to 10 | – | –
26 | Nc1cccc(C(=O)NCC(O)CN2Cc3ccccc3C2)c1 (centres unmarked) [Compound E2.] | – | 1 to 10 | –
27 | O=C(COc1cccc2cccnc12)NC[C@H](O)CN1Cc2ccccc2C1 [Compound E4.] | – | < 0.1 | –
28 | C[C@@H](Oc1cccc2cccnc12)C(=O)NC[C@H](O)CN1Cc2ccccc2C1 [Compound E5.] | – | < 0.1 | –
29 | C[C@H](Oc1cccc2cccnc12)C(=O)NC[C@@H](O)CN1Cc2ccccc2C1 [Compound E6.] | – | > 10 | –
30 | O=C(COc1ccccc1-c1cc[nH]n1)NCC(O)CN1Cc2ccccc2C1 (centres unmarked) [Compound E7.] | – | 0.101 to 1 | –
31 | CC(C)(C)OC(=O)Nc1cccc(C(=O)NCC(O)CN2Cc3ccccc3C2)c1 (centres unmarked) [Compound E11.] | – | 0.101 to 1 | –
32 | CS(=O)(=O)c1ccccc1OCC(=O)NCC(O)CN1Cc2ccccc2C1 (centres unmarked) [Compound E12.] | – | 0.101 to 1 | –
33 | O=C(NCC(O)CN1Cc2ccccc2C1)c1cccc(-c2ccccn2)c1 (centres unmarked) [Compound E13.] | – | 0.101 to 1 | –
34 | CN(C)S(=O)(=O)c1ccccc1OCC(=O)NCC(O)CN1Cc2ccccc2C1 (centres unmarked) [Compound E15.] | – | < 0.1 | –
35 | O=C(COc1cccc2cccnc12)NC[C@@H](O)CN1Cc2ccccc2C1 [Compound E16.] | – | 1 to 10 | –
36 | O=C(COc1cccc2cccnc12)NCC(O)CN1Cc2ccccc2C1 (centres unmarked) [Compound E19.] | – | 0.101 to 1 | –
37 | OC(COc1cccc(CNC2CCCC2)c1)CN1Cc2ccccc2C1 (centres unmarked) [Compound E20.] | – | 1 to 10 | –

Further lines, with some results ahead:

Row | IC50 ([2]; Table D-2) [µM] | IC50 ([2]; Table E-2) [µM] | SMILES | EC50 [1] [µM]
38 | 1 to 10 | – | OC(COc1ccc(-n2cncn2)cc1)CN1CCc2ccccc2C1 (centres unmarked) [Compound D9] | > 20
39 | 10 to 40 | – | CC(C)n1nccc1-c1ccc(OCC(O)CN2CCc3ccccc3C2)cc1 (centres unmarked) [Compound D26] | > 40
40 | 1 to 10 | – | CC(C)n1ccc(-c2ccc(OCC(O)CN3CCc4ccccc4C3)cc2)n1 (centres unmarked) [Compound D27] | > 40
41 | 0.101 to 1 | – | CCC1c2ccccc2CCN1CC(O)COc1cccc(-c2ccc3ncn(C)c3c2)c1 (centres unmarked) [Compound D179] | > 20
42 | 1 to 10 | – | Cc1cccc2c1CN(CC(O)COc1cccc(-c3ccc4ncn(C)c4c3)c1)CC2 (centres unmarked) [Compound D192] | –
43 | > 40 | – | CCOC(=O)C1c2ccccc2CCN1CC(O)COc1cccc(-c2ccc3ncn(C)c3c2)c1 (centres unmarked) [Compound D193] | –
44 | 1 to 10 | – | OC(COc1cccc(N2CCc3[nH]nc(-c4ccccc4)c3C2)c1)CN1CCc2ccccc2C1 (centres unmarked) [Compound D194] | –
45 | 1 to 10 | – | Cn1cncc1C(=O)Nc1cccc(OCC(O)CN2CCc3ccccc3C2)c1 (centres unmarked) [Compound D195] | –
46 | 1 to 10 | – | CN(C(=O)c1cnco1)c1cccc(OCC(O)CN2CCc3ccccc3C2)c1 (centres unmarked) [Compound D196] | –
47 | 1 to 10 | – | CN(C(=O)c1cn(C)cn1)c1cccc(OCC(O)CN2CCc3ccccc3C2)c1 (centres unmarked) [Compound D197] | –
48 | 10 to 40 | – | CN(C(=O)c1cocn1)c1cccc(OCC(O)CN2CCc3ccccc3C2)c1 (centres unmarked) [Compound D198] | –
49 | > 40 | – | Cn1cnc2ccc(-c3cccc(OCC(O)CN4CCc5ccccc5C4CC(N)=O)c3)cc21 (centres unmarked) [Compound D202] | –
50 | 1 to 10 | – | CN(C(=O)c1cncn1C)c1cccc(OCC(O)CN2CCc3ccccc3C2)c1 (centres unmarked) [Compound D203] | –
51 | 1 to 10 | – | CN(C(=O)c1cccnc1)c1cccc(OCC(O)CN2CCc3ccccc3C2)c1 (centres unmarked) [Compound D204] | –
52 | 1 to 10 | – | CNC(=O)Cn1ccc2cnc(-c3cccc(OCC(O)CN4CCc5ccccc5C4)c3)nc21 (centres unmarked) [Compound D206] | –
53 | 1 to 10 | – | Cn1cnc2ccc(-c3cccc(OCC(O)CN4CCc5ccccc5C4(C)C)c3)cc21 (centres unmarked) [Compound D211] | –
54 | 1 to 10 | – | Cc1ccc2c(c1)CN(CC(O)COc1cccc(-c3ccc4ncn(C)c4c3)c1)CC2 (centres unmarked) [Compound D212] | –

Row | IC50 ([2]; Table D-2) [µM] | IC50 ([2]; Table E-2) [µM] | SMILES | EC50 [1] [µM]
55 | 1 to 10 | – | Cc1cccc2c1CCN(CC(O)COc1cccc(-c3ccc4ncn(C)c4c3)c1)C2 (centres unmarked) [Compound D213] | –
56 | 1 to 10 | – | Cn1cnc2ccc(-c3cccc(OCC(O)CN4CCc5ccc(Cl)cc5C4)c3)cc21 (centres unmarked) [Compound D214] | –
57 | 1 to 10 | – | Cn1cnc2ccc(-c3cccc(OCC(O)CN4CCc5c(Cl)cccc5C4)c3)cc21 (centres unmarked) [Compound D215] | –
58 | > 40 | – | Cn1cnc2ccc(-c3cccc(OCC(O)CN4CCc5ccccc5C4=O)c3)cc21 (centres unmarked) [Compound D225] | –
59 | < 0.1 | – | Cn1ccc2ccc(-c3ccnc(NCC(O)CN4CCc5ccccc5C4)c3)cc21 (centres unmarked) [Compound D227] | –
60 | 0.101 to 1 | – | CC(=O)N1CCC(n2cnc3ccc(-c4cccc(OCC(O)CN5CCc6ccccc6C5)c4)cc32)CC1 (centres unmarked) [Compound D228] | –
61 | < 0.1 | – | OC(CNc1cc(-c2ccc3ncn(C4CNC4)c3c2)ccn1)CN1CCc2ccccc2C1 (centres unmarked) [Compound D229] | –
62 | < 0.1 | – | CN1CC(n2cnc3ccc(-c4ccnc(NCC(O)CN5CCc6ccccc6C5)c4)cc32)C1 (centres unmarked) [Compound D230] | –
63 | 0.101 to 1 | – | O=C(Cn1ccc2cnc(-c3cccc(OCC(O)CN4CCc5ccccc5C4)c3)nc21)N1CCCC1 (centres unmarked) [Compound D231] | –
64 | 0.101 to 1 | – | O=C(Cn1ccc2cnc(-c3cccc(OCC(O)CN4CCc5ccccc5C4)c3)nc21)N1CCCCC1 (centres unmarked) [Compound D232] | –
65 | 0.101 to 1 | – | O=C(Nc1ccccn1)c1cccc(OCC(O)CN2CCc3ccccc3C2)c1 (centres unmarked) [Compound D267] | –
66 | 1 to 10 | – | O=C(Nc1cccnc1)c1cccc(OCC(O)CN2CCc3ccccc3C2)c1 (centres unmarked) [Compound D268] | –
67 | 1 to 10 | – | O=C(Nc1cc[nH]n1)c1cccc(OCC(O)CN2CCc3ccccc3C2)c1 (centres unmarked) [Compound D274] | –
68 | > 10 | – | Cn1cnc2ccc(-c3cccc(OCC(O)CN4Cc5ccccc5C(F)(F)C4)c3)cc21 (centres unmarked) [Compound D277] | –
69 | – | 1 to 10 | Cn1cnc2ccc(-c3cccc(OCC(O)CN4Cc5ccccc5C4)c3)cc21 (centres unmarked) [Compound E9.] | –
70 | – | 1 to 10 | COc1ccc(Cn2cnc3ccc(-c4ccc(OCC(O)CN5Cc6ccccc6C5)cc4)cc32)cc1 (centres unmarked) [Compound E18.] | –
